Assays:
Format in all cases: functional
Saccharomyces cerevisiae [1] = assay: (§1) MMV: Growth assays were conducted using the prototrophic S. cerevisiae strain JHY222. Each MMV compound (0.1 mM) was tested in minimal media containing dextrose as a carbon source (Yeast Nitrogen Base, Dextrose; YNBD). The growth rate in the presence of each MMV compound was calculated as follows: (i) the first 10 OD readings were averaged and subtracted from all OD readings of the corresponding curve to set the baseline of the growth curve to zero, and (ii) the area under the curve (AUC) was then calculated as the sum of all OD readings. […] A relative growth value was calculated as follows: AUC(DRUG) - AUC(DMSO)/AUC(DMSO); where AUC(DMSO) represents growth measured in a DMSO control well that was on the same microtiter plate of the drug-treated culture.
Saccharomyces cerevisiae [2] = assay: as §1, with “ethanol and glycerol” for “dextrose”, “as” for “as a”, “sources” for “source”, “Ethanol, Glycerol; YNBEG).” for “Dextrose; YNBD).”
Saccharomyces cerevisiae [3] = assay: as §1, with “rich” for “minimal”, “Extract, Peptone,” for “Nitrogen Base,”, “YPD).” for “YNBD).”

Row | Structure (SMILES) | Relative Growth (Saccharomyces cerevisiae [1]) | Relative Growth (Saccharomyces cerevisiae [2]) | Relative Growth (Saccharomyces cerevisiae [3])
1 | O=C1c2ccccc2-c2nnc(-c3ccc(Br)cc3)cc21 | 0.0312 | 0.1282 | -0.0452
2 | Cc1nc2ccccc2c(O)c1CC=C(Cl)Cl | -0.0687 | -1.0138 | -0.1226
3 | CC(=O)c1ccc(NC(=O)CSc2nc(-c3ccccc3Cl)ns2)cc1 | 0.0088 | 0.0011 | -0.0294
4 | Brc1ccc(Nc2nc3ccccc3nc2Nc2ccc(Br)cc2)cc1 | -0.0577 | -0.5592 | -0.9981
5 | O=C(NCCCN1CCC(N2CCCCC2)CC1)C1=Cc2cc(Br)ccc2OC1 | -0.0044 | -0.1063 | -0.0702
6 | Cc1ccnc(NC(c2cccc(OCc3ccccc3)c2)c2ccc3cccnc3c2O)c1 (configuration not stated) | 0.0892 | -0.3469 | 0
7 | Nc1ccc(-c2nc3cc(Cc4ccc5[nH]c(-c6ccc(N)cc6)nc5c4)ccc3[nH]2)cc1 | -0.0312 | -0.1364 | -0.9832
8 | CCCCOC(=O)c1ccc(Nc2cc(C)nc3ccc(OC)cc23)cc1 | -0.0919 | -0.3112 | -0.1158
9 | N=c1c2ccccc2nnn1-c1cccc(C(F)(F)F)c1 | -0.1559 | -0.1336 | -0.0528
10 | COc1cc(-c2nc(-c3ccc(Sc4ccccc4)cc3)c(-c3ccccc3)[nH]2)cc(OC)c1O | -0.0129 | -0.2127 | -0.0314
11 | O=c1cc(NC2CCN(CCCc3ccccc3)CC2)c2cc(Cl)ccc2o1 | 0.014 | 0.0246 | -0.0193
12 | Cc1ccc(OCCCCCCNCCO)c(C)c1 | 0.026 | -0.0581 | -0.034
13 | CCOc1ccc(-n2cc(-c3ccccc3)c3c(SCc4cc(C)ccc4C)ncnc32)cc1 | -0.0883 | -0.2113 | -0.0534
14 | Cc1ccc(C)c(Cn2c(N3CCC(C(=O)NCc4cccs4)CC3)nc3ccccc32)c1 | -0.0285 | -0.021 | -0.4893
15 | Cc1ccccc1OCCSc1nc2ccc(NC(=O)c3cccs3)cc2s1 | -0.1829 | -0.9335 | -0.0038
16 | CC1CCN(Cc2c(O)ccc3cc(-c4nc5ccccc5s4)c(=O)oc23)CC1 | -0.0399 | -0.3243 | -0.0068
17 | CC(C)CCNCC(O)Cn1c2ccccc2c2ccccc21.Cl (configuration not stated) | -0.9941 | -1.0262 | -0.9987
18 | CCN(CC)CCCNc1ccnc2cc3ccccc3cc12 | 0.0381 | 0.1561 | -0.9889
19 | Cc1ccccc1OCCSc1nc2ccc(NC(=O)c3ccccc3)cc2s1 | -0.1178 | -0.0554 | -0.3917
20 | O=C(Nc1ccc(-c2nc3cc4ccccc4cc3[nH]2)cc1)c1cccc(Br)c1 | 0.0231 | 0.0139 | -0.1256
21 | Cc1ccc(C2CC(C(F)(F)F)n3nc(C(=O)N4CCN(C(c5ccccc5)c5ccccc5)CC4)cc3N2)cc1 (configuration not stated) | -0.1134 | -0.019 | 0.0315
22 | Cc1ccc2nc(C)cc(Nc3cccc(C(F)(F)F)c3)c2c1.Cl | -0.0826 | -0.1571 | -0.0219

Row | Structure (SMILES) | Relative Growth (Saccharomyces cerevisiae [1]) | Relative Growth (Saccharomyces cerevisiae [2]) | Relative Growth (Saccharomyces cerevisiae [3])
23 | COc1ccc(N2CCN(C(CNC(=O)CC(C)(C)C)c3ccc4c(c3)OCO4)CC2)cc1 (configuration not stated) | -0.0787 | -0.1806 | 0.0032
24 | COc1cccc(C(=O)NC(c2ccc(C)cc2)c2cc(Cl)c3cccnc3c2O)c1 (configuration not stated) | 0.017 | 0.1449 | -0.0292
25 | CCCCCCn1c(=N)n(CC(O)COc2cccc(C)c2)c2ccccc21.Cl (configuration not stated) | -0.1558 | -0.0105 | -0.051
26 | COc1ccc(-c2cc(=O)oc3c4c(ccc23)OCN(Cc2ccc(F)cc2)C4)cc1 | 0.0043 | -0.013 | 0.0536
27 | CCOC(=O)C1(Cc2ccccc2)CCN(Cc2cccc(OC)c2O)CC1 | -0.0215 | -0.0203 | -0.0248
28 | CCCOCc1cc(CN2CCN(c3cccc(Cl)c3)CC2)c(O)c2ncccc12 | -0.0021 | -0.1694 | -0.0331
29 | O=C(Cc1ccccc1)NC(c1ccc(Cl)cc1)c1c(O)ccc2ccccc12 (configuration not stated) | -0.1217 | 0.0388 | 0.0198
30 | Oc1ccc(C(=C(Cl)Cl)c2ccc(O)cc2)cc1 | -0.227 | -0.5689 | 0.0294
31 | CCOc1ccc2c(c1)CN(Cc1ccc(Cl)cc1)CO2 | -0.0363 | -0.0581 | -0.0457
32 | CC(C)(C)c1ccc2c(c1)CN(Cc1ccc(Cl)cc1)CO2 | -0.1149 | -0.1101 | -0.9993
33 | COc1ccc(C(=O)NC(c2ccccc2Cl)c2cc(Cl)c3cccnc3c2O)cc1 (configuration not stated) | -1.0012 | -1.0144 | -0.3676
34 | Cc1cc(=O)oc2c1ccc1oc(C(=O)c3ccccc3)c(C)c12 | -0.1287 | -0.3574 | 0.0119
35 | COc1ccc2c(c1OC)C(=O)N1c3ccccc3N=C(c3ccc(C)cc3)CC21 (configuration not stated) | -1.0612 | -1.0982 | -0.0173
36 | CCCCCCc1cc(O)c2c3c(c(=O)oc2c1)CCC(C)C3 (configuration not stated) | -0.0738 | -0.0677 | -0.0517
37 | OC1=C2C(=Nc3ccccc3SC2c2ccc(Br)cc2)c2ccccc21 (configuration not stated) | 0.0198 | 0.1502 | -0.0041
38 | COc1ccc(C)c2sc(N(Cc3cccnc3)C(=O)c3ccc(C#N)cc3)nc12 | -0.0341 | 0.0255 | -0.0087
39 | CCCCCCc1cc2cc(-c3nc4ccccc4[nH]3)c(=Nc3ccccc3C)oc2cc1O | 0.1107 | -0.1213 | -0.0113
40 | COc1cc(OC)cc(N2C(=O)N(Cc3ccc(C(C)(C)C)cc3)c3ccccc3S2(=O)=O)c1 | 0.0008 | -0.0128 | -0.7249
41 | COc1ccccc1N1C(=N)SC(=Cc2ccc(OCc3ccccc3F)cc2)C1=O | 0.0037 | -0.0753 | 0.0323
42 | CCN1CCN(c2c(C(=O)c3ccccc3)cnc3cc(OC)c(OC)cc23)CC1 | 0.0169 | -0.2869 | -0.0459
43 | Cc1ccc(S(=O)(=O)c2c(COC(=O)c3cccc(C)c3)c(-c3ccccc3)nn2C)cc1 | -0.0588 | -0.0042 | 0.0124
44 | CCOC(=O)c1c[nH]c2c(CC)cccc2c1=O | -0.1466 | -0.0989 | -0.0665
